Assay results published in patent US20060235076A1, “Medicinal composition for treating infection with drug-resistant staphylococcus aureus” (priority 2003, published 2006).

How the values were obtained:
[1] = tested on: MRSA; test: Potentiating effect of galloyl quinic acid derivatives for the antibacterial activity of oxacillin (agar plate dilution method, MIC); format: cell-based, Staphylococcus aureus
Protocol: According to the agar plate dilution method defined by Japan Society of Chemotherapy, MIC (Minimum inhibitory concentration) was determined. CAMHA was prepared by adding 50 mg/l of Ca-ion, 25 mg/l of Mg-ion, and 2% of NaCl to Mueller-Hinton II Agar (MHA), and it was used as a medium for use in the measurement of sensitivity. The bacterial liquid was incubated at 37° C. overnight and diluted to 10^6 CFU/ml with saline.
It was confirmed that the known substances shown below were contained in “Tara” and their MICs were determined as described in example 2 with respect to the effects of the combination use with oxacillin

[2] = tested on: MRSA COL and MRSA Strain No. 5; test: Potentiating effect of various gallates for antibacterial activity of oxacillin (MIC by broth microdilution method and FIC); format: cell-based, Staphylococcus aureus; details: for effect of the combination use with oxacillin by FIC values: COL Strain and Strain No. 5; for FIC value: combination with oxacillin
Protocol: According to the broth microdilution method defined by Japan Society of Chemotherapy, MIC was determined. CAMHA was prepared by adding 50 mg/l of Ca-ion, 25 mg/l of Mg-ion, and 2% of NaCl to MHB (Mueller-Hinton Broth), and it was used as a medium for use in the measurement of sensitivity. In 96-well microplates 100 μl of the medium for use in the measurement of sensitivity containing drugs was dispensed. The bacterial liquid was incubated at 37° C. overnight, diluted with saline and added to the plate so that the final concentration of the bacteria was 5×10^5 CFU/well. […] FIC (fractional inhibitory concentration) was calculated from the result and the potency of the effect of the combination use was evaluated.

Question: For COC(=O)C1(O)CC(O)C(OC(=O)c2cc(O)c(O)c(O)c2)C(OC(=O)c2cc(O)c(O)c(O)c2)C1 (stereo not shown) [compound 1], which “Oxacillin MIC” value ([1]; ATCC 6538, with 12.5 μg/ml of compound) is on record?
Answer: The value was less than 0.5 µg/mL.

Question: What about the “Oxacillin MIC” value ([1]; ATCC 6538, with 25 μg/ml of compound) of the same molecule?
Answer: The value was less than 0.063 µg/mL.

Question: What about the “Oxacillin MIC” value ([1]; ATCC 6538, with 50 μg/ml of compound) of the same molecule?
Answer: Its value is less than 0.5 µg/mL.

Question: What about the “Oxacillin MIC” value ([1]; MRSA 1, with 12.5 μg/ml of compound) of the same molecule?
Answer: The value was 128 µg/mL.

Question: And the “Oxacillin MIC” value ([1]; MRSA 1, with 25 μg/ml of compound)?
Answer: The value was 128 µg/mL.

Question: What about the “Oxacillin MIC” value ([1]; MRSA 1, with 50 μg/ml of compound) of the same molecule?
Answer: Its value is 128 µg/mL.

Question: And the “Oxacillin MIC” value ([1]; MRSA 2, with 12.5 μg/ml of compound)?
Answer: Its value is 2 µg/mL.

Question: What about the “Oxacillin MIC” value ([1]; MRSA 2, with 25 μg/ml of compound) of the same molecule?
Answer: Its value is 2 µg/mL.

Question: And the “Oxacillin MIC” value ([1]; MRSA 2, with 50 μg/ml of compound)?
Answer: The value was 2 µg/mL.

Question: And the “Oxacillin MIC” value ([1]; MRSA 3, with 12.5 μg/ml of compound)?
Answer: Its value is less than 0.5 µg/mL.

Question: What about the “Oxacillin MIC” value ([1]; MRSA 3, with 25 μg/ml of compound) of the same molecule?
Answer: The value was 0.5 µg/mL.

Question: And the “Oxacillin MIC” value ([1]; MRSA 3, with 50 μg/ml of compound)?
Answer: The value was 1 µg/mL.

Question: And the “Oxacillin MIC” value ([1]; MRSA 4, with 12.5 μg/ml of compound)?
Answer: The value was 128 µg/mL.

Question: What about the “Oxacillin MIC” value ([1]; MRSA 4, with 25 μg/ml of compound) of the same molecule?
Answer: Its value is 128 µg/mL.

Question: What about the “Oxacillin MIC” value ([1]; MRSA 4, with 50 μg/ml of compound) of the same molecule?
Answer: The value was 32 µg/mL.

Question: What about the “Oxacillin MIC” value ([1]; MRSA 5, with 12.5 μg/ml of compound) of the same molecule?
Answer: Its value is 128 µg/mL.

Question: What about the “Oxacillin MIC” value ([1]; MRSA 5, with 25 μg/ml of compound) of the same molecule?
Answer: Its value is 32 µg/mL.

Question: What about the “Oxacillin MIC” value ([1]; MRSA 5, with 50 μg/ml of compound) of the same molecule?
Answer: Its value is 64 µg/mL.

Question: What about the “Oxacillin MIC” value ([1]; MRSA 6, with 12.5 μg/ml of compound) of the same molecule?
Answer: The value was 2 µg/mL.

Question: What about the “Oxacillin MIC” value ([1]; MRSA 6, with 25 μg/ml of compound) of the same molecule?
Answer: Its value is 2 µg/mL.

Question: And the “Oxacillin MIC” value ([1]; MRSA 6, with 50 μg/ml of compound)?
Answer: The value was 4 µg/mL.

Question: What about the “Oxacillin MIC” value ([1]; MRSA 7, with 12.5 μg/ml of compound) of the same molecule?
Answer: Its value is 32 µg/mL.

Question: What about the “Oxacillin MIC” value ([1]; MRSA 7, with 25 μg/ml of compound) of the same molecule?
Answer: Its value is 16 µg/mL.

Question: What about the “Oxacillin MIC” value ([1]; MRSA 7, with 50 μg/ml of compound) of the same molecule?
Answer: The value was 16 µg/mL.

Question: What about the “Oxacillin MIC” value ([1]; MRSA 8, with 12.5 μg/ml of compound) of the same molecule?
Answer: The value was less than 0.5 µg/mL.

Question: And the “Oxacillin MIC” value ([1]; MRSA 8, with 25 μg/ml of compound)?
Answer: The value was 16 µg/mL.

Question: And the “Oxacillin MIC” value ([1]; MRSA 8, with 50 μg/ml of compound)?
Answer: Its value is 1 µg/mL.

Question: What about the “Oxacillin MIC” value ([1]; MRSA 9, with 12.5 μg/ml of compound) of the same molecule?
Answer: Its value is 16 µg/mL.

Question: And the “Oxacillin MIC” value ([1]; MRSA 9, with 25 μg/ml of compound)?
Answer: Its value is 16 µg/mL.

Question: What about the “Oxacillin MIC” value ([1]; MRSA 9, with 50 μg/ml of compound) of the same molecule?
Answer: The value was 8 µg/mL.

Question: What about the “Oxacillin MIC” value ([1]; MRSA 10, with 12.5 μg/ml of compound) of the same molecule?
Answer: The value was 4 µg/mL.

Question: And the “Oxacillin MIC” value ([1]; MRSA 10, with 25 μg/ml of compound)?
Answer: The value was 8 µg/mL.

Question: What about the “Oxacillin MIC” value ([1]; MRSA 10, with 50 μg/ml of compound) of the same molecule?
Answer: The value was 8 µg/mL.

Question: What about the “Oxacillin MIC” value ([1]; MRSA 12, with 12.5 μg/ml of compound) of the same molecule?
Answer: Its value is 16 µg/mL.

Question: And the “Oxacillin MIC” value ([1]; MRSA 12, with 25 μg/ml of compound)?
Answer: The value was 16 µg/mL.

Question: And the “Oxacillin MIC” value ([1]; MRSA 12, with 50 μg/ml of compound)?
Answer: The value was 16 µg/mL.

Question: And the “Oxacillin MIC” value ([1]; MRSA 16, with 12.5 μg/ml of compound)?
Answer: Its value is 128 µg/mL.

Question: What about the “Oxacillin MIC” value ([1]; MRSA 16, with 25 μg/ml of compound) of the same molecule?
Answer: Its value is 128 µg/mL.

Question: And the “Oxacillin MIC” value ([1]; MRSA 16, with 50 μg/ml of compound)?
Answer: The value was 64 µg/mL.

Question: And the “Oxacillin MIC” value ([1]; MRSA 17, with 12.5 μg/ml of compound)?
Answer: Its value is 32 µg/mL.

Question: What about the “Oxacillin MIC” value ([1]; MRSA 17, with 25 μg/ml of compound) of the same molecule?
Answer: Its value is 32 µg/mL.

Question: And the “Oxacillin MIC” value ([1]; MRSA 17, with 50 μg/ml of compound)?
Answer: The value was 4 µg/mL.

Question: What about the “Oxacillin MIC” value ([1]; MRSA 18, with 12.5 μg/ml of compound) of the same molecule?
Answer: The value was 128 µg/mL.

Question: And the “Oxacillin MIC” value ([1]; MRSA 18, with 25 μg/ml of compound)?
Answer: The value was 128 µg/mL.

Question: What about the “Oxacillin MIC” value ([1]; MRSA 18, with 50 μg/ml of compound) of the same molecule?
Answer: The value was 32 µg/mL.

Question: What about the “Oxacillin MIC” value ([1]; MRSA 20, with 12.5 μg/ml of compound) of the same molecule?
Answer: The value was less than 0.5 µg/mL.

Question: And the “Oxacillin MIC” value ([1]; MRSA 20, with 25 μg/ml of compound)?
Answer: The value was 0.25 µg/mL.

Question: And the “Oxacillin MIC” value ([1]; MRSA 20, with 50 μg/ml of compound)?
Answer: The value was less than 0.5 µg/mL.

Question: And the “Oxacillin MIC” value ([1]; MRSA 21, with 12.5 μg/ml of compound)?
Answer: Its value is less than 0.5 µg/mL.

Question: And the “Oxacillin MIC” value ([1]; MRSA 21, with 25 μg/ml of compound)?
Answer: Its value is 0.25 µg/mL.

Question: And the “Oxacillin MIC” value ([1]; MRSA 21, with 50 μg/ml of compound)?
Answer: Its value is 1 µg/mL.

Question: What about the “Oxacillin MIC” value ([1]; MRSA 22, with 12.5 μg/ml of compound) of the same molecule?
Answer: The value was 1 µg/mL.

Question: What about the “Oxacillin MIC” value ([1]; MRSA 22, with 25 μg/ml of compound) of the same molecule?
Answer: The value was 0.5 µg/mL.

Question: What about the “Oxacillin MIC” value ([1]; MRSA 22, with 50 μg/ml of compound) of the same molecule?
Answer: Its value is 1 µg/mL.

Question: What about the “Oxacillin MIC” value ([1]; MRSA COL, with 12.5 μg/ml of compound) of the same molecule?
Answer: Its value is 8 µg/mL.

Question: And the “Oxacillin MIC” value ([1]; MRSA COL, with 25 μg/ml of compound)?
Answer: Its value is 32 µg/mL.

Question: And the “Oxacillin MIC” value ([1]; MRSA COL, with 50 μg/ml of compound)?
Answer: Its value is 2 µg/mL.

Question: And the “Oxacillin MIC” value ([1]; MSSA 1003, with 12.5 μg/ml of compound)?
Answer: The value was less than 0.5 µg/mL.

Question: And the “Oxacillin MIC” value ([1]; MSSA 1003, with 25 μg/ml of compound)?
Answer: The value was 0.25 µg/mL.

Question: And the “Oxacillin MIC” value ([1]; MSSA 1003, with 50 μg/ml of compound)?
Answer: Its value is less than 0.5 µg/mL.

Question: What about the “Oxacillin MIC” value ([1]; MSSA 1010, with 12.5 μg/ml of compound) of the same molecule?
Answer: Its value is less than 0.5 µg/mL.

Question: What about the “Oxacillin MIC” value ([1]; MSSA 1010, with 25 μg/ml of compound) of the same molecule?
Answer: The value was 0.5 µg/mL.

Question: And the “Oxacillin MIC” value ([1]; MSSA 1010, with 50 μg/ml of compound)?
Answer: The value was less than 0.5 µg/mL.

Question: What about the “Oxacillin MIC” value ([1]; MSSA 1032, with 12.5 μg/ml of compound) of the same molecule?
Answer: Its value is less than 0.5 µg/mL.

Question: And the “Oxacillin MIC” value ([1]; MSSA 1032, with 25 μg/ml of compound)?
Answer: Its value is 0.25 µg/mL.

Question: What about the “Oxacillin MIC” value ([1]; MSSA 1032, with 50 μg/ml of compound) of the same molecule?
Answer: Its value is less than 0.5 µg/mL.

Question: What about the “Oxacillin MIC” value ([1]; RN4220, with 12.5 μg/ml of compound) of the same molecule?
Answer: The value was less than 0.5 µg/mL.

Question: What about the “Oxacillin MIC” value ([1]; RN4220, with 25 μg/ml of compound) of the same molecule?
Answer: Its value is 0.125 µg/mL.

Question: And the “Oxacillin MIC” value ([1]; RN4220, with 50 μg/ml of compound)?
Answer: The value was less than 0.5 µg/mL.

Question: What does the source list for catechin gallate?
Answer: effect of the combination use with oxacillin by FIC values [2]: most potent; FIC value ([2]; MRSA COL): <0.25; FIC value ([2]; MRSA Strain No. 5): 0.064

Question: Which “effect of the combination use with oxacillin by FIC values” [2] does the source give for O=C(O[C@@H]1Cc2c(O)cc(O)cc2O[C@@H]1c1ccc(O)c(O)c1)c1cc(O)c(O)c(O)c1 [Epicatechin gallate, epicatechin gallate] here?
Answer: Its value is “more potent effects of the combination use”.

Question: What about the FIC value ([2]; MRSA COL) of the same molecule?
Answer: Its FIC value is 0.127.

Question: And the FIC value ([2]; MRSA Strain No. 5)?
Answer: Its FIC value is 0.188.

Question: For O=C(OC1CC(O)(C(=O)O)CC(O)C1OC(=O)c1cc(O)c(O)c(O)c1)c1cc(O)c(O)c(O)c1 (stereo not shown) [3,4-digalloylquinic acid], which “effect of combination use with oxacillin (words)” value [1] is on record?
Answer: Its value is “weak effects”.
